In ChEMBL document CHEMBL1201862, “PubChem BioAssay data set” (2004):
Calls of active or inactive are those of the source.

What was measured:
[1] = target: T1, Ubiquitin-conjugating enzyme E2 N (Homo sapiens, UniProt P61088); type: functional
T1 sequence (P61088 whole entry): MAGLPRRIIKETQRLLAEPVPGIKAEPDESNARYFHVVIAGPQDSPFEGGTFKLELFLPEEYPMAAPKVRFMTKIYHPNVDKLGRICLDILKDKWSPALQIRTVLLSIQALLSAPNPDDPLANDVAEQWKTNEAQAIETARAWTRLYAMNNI

Bcl-2-related protein A1 = target: T2, Bcl-2-related protein A1 (Mus musculus, UniProt Q07440); type: functional;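 also: confirmatory dose–response counterscreen on Bfl-1, used to check hits from a UBC13 polyubiquitin inhibitor campaign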
T2 sequence (Q07440 whole entry): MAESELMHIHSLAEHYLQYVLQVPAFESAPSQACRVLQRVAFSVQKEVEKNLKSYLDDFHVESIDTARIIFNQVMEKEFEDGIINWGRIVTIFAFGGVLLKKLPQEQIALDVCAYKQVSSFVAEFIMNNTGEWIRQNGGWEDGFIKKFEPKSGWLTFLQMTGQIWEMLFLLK

[2] = target: T1, Ubiquitin-conjugating enzyme E2 N; type: functional; remark: listed apart in the source
[3] = target: T3, Microphthalmia-associated transcription factor (Homo sapiens, UniProt O75030); experiment: reducers of TRPM1 reporter luminescence, concentration series – cell-based, SK-MEL-5, cherry-picked, set 3, MITF inhibitor project, dose response (AID 493073); type: functional;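 also: SK-MEL-5 melanoma cells with luciferase driven by the MITF target TRPM1 promoter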
T3 sequence (O75030 whole entry): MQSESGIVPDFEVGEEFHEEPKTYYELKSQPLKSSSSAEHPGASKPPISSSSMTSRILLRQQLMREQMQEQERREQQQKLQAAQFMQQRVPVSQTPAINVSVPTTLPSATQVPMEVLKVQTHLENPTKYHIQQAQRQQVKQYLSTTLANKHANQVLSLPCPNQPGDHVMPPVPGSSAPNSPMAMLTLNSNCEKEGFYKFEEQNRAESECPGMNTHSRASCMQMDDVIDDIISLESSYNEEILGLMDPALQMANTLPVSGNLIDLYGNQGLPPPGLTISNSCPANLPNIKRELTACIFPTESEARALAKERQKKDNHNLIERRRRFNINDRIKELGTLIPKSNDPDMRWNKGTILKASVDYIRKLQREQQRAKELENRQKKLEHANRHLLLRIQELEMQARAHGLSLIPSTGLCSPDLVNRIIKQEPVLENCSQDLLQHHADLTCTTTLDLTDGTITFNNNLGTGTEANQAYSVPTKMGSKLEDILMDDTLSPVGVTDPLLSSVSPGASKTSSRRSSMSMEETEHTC

[4] = target: Melanin-concentrating hormone receptor 1 (Homo sapiens, UniProt Q99705); experiment: Fluorescence-based counterscreen for antagonists of the G-protein coupled receptor 7 (GPR7): cell-based high throughput dose response assay to identify antagonists of the melanin-concentrating hormone receptor 1 (MCHR1).; type: functional
[5] = target: T4, Neuropeptides B/W receptor type 1 (Homo sapiens, UniProt P48145); experiment: Fluorescence-based dose response cell-based high throughput screening assay to identify antagonists of the G-protein coupled receptor 7 (GPR7). [Related pubchem assays: 1952 (Screening assay (GPR7 antagonists).), 1880 (Summary AID.)]; type: functional
T4 sequence (P48145 whole entry): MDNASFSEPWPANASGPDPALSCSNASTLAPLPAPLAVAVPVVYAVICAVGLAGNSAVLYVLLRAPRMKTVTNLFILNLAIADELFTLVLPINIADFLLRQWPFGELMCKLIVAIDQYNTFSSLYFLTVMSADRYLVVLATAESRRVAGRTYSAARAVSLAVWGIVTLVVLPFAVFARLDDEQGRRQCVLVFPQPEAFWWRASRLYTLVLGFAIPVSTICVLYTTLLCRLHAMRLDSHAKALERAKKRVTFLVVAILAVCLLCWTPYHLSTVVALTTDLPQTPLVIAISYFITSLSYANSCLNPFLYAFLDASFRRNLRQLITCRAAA

Cytochrome P450 2D6 = Cytochrome P450 2D6 (Homo sapiens, UniProt P10635);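 also: CYP2D6 member of a cytochrome P450 panel assay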
Cytochrome P450 2C19 = Cytochrome P450 2C19 (Homo sapiens, UniProt P33261); experiment: Cytochrome panel assay with activity outcomes. Panel member name: p450-cyp2c19 Compounds with AC50 equal or less than 10 uM are considered active; type: functional; details: read-out: AC50
Leucine aminopeptidase = target: T5, Leucine aminopeptidase (Plasmodium falciparum 3D7, UniProt Q8IL11); experiment: P. falciparum M17LAP inhibitors, primary screen, biochemical, fluorogenic H-Leu-NHMec substrate, 1536-well (AID 1619); type: functional
T5 sequence (Q8IL11 whole entry): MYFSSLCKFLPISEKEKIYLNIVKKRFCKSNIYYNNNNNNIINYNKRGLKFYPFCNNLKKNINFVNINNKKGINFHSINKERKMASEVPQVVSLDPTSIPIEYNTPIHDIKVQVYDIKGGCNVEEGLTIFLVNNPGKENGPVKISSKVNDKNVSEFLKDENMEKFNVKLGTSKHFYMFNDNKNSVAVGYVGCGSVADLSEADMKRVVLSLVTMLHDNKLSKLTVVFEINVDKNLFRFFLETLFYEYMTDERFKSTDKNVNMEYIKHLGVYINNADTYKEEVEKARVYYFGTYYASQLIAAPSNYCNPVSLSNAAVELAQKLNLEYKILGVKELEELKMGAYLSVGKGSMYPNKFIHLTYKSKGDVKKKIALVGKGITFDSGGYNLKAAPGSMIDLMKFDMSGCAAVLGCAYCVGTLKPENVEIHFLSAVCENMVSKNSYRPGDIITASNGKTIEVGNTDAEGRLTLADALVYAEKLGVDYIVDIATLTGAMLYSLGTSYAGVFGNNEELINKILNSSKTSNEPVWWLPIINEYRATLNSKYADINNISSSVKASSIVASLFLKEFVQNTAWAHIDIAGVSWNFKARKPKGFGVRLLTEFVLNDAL

[6] = target: T6, RNA-binding protein pos-1 (Caenorhabditis elegans, UniProt G5EF15); experiment: disruptors of C. elegans POS-1 RNA interaction – biochemical, fluorescence polarization, dose response (AID 1964);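 also: purified POS-1 fused to maltose binding protein made in E. coli; potency of compounds blocking POS-1 binding to fluorescent RNA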
T6 sequence (G5EF15 whole entry): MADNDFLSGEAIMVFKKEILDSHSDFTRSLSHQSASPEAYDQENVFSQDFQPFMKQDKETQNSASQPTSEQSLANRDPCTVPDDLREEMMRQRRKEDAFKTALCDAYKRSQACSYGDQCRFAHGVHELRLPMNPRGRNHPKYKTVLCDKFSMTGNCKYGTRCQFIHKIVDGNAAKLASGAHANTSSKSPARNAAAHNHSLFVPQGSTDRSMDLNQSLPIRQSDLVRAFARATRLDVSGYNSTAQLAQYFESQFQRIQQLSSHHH

[7] = system: Streptococcus sp. 'group A'; experiment: Streptococcus pyogenes SK(-)GAS viability under kanamycin – luminescence, BacTiterGlo, confirmation, counter-screen for streptokinase expression inhibitor project, dose response (AID 1900); type: functional, organism-based
Nonstructural protein 1 = Nonstructural protein 1 (Influenza A virus, UniProt Q194T2); type: functional, Influenza A virus (A/California/07/2009(H1N1))
SUMO-activating enzyme [8] = target: T7, SUMO-activating enzyme (Homo sapiens, UniProt Q9UBT2); experiment: blockers of UBC9-mediated SUMO conjugation – biochemical, AlphaScreen, SUMOylation inhibitor project, confirmation (AID 2018); type: functional
Albumin = Albumin (Bos taurus, UniProt P02769); experiment: Counterscreen for inhibitors of T-cell receptor (TCR)-CD3 interaction: Fluorescence-based biochemical high throughput dose response assay to identify inhibitors of T-cell receptor (TCR)-CD3 interaction using a TAMRA-labeled BSA probe.; type: functional
Streptococcus = experiment: GAS UMAA2166 growth inhibition – luminescence, BacTiterGlo, counter-screen for streptokinase expression inhibitor project, dose response (AID 1915); type: functional, organism-based;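 also: potency for reduction of bacterial viability or growth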
[9] = target: T8, Zinc finger protein mex-5 (Caenorhabditis elegans, UniProt Q9XUB2); experiment: potency of MEX-5 RNA-binding blockers – biochemical, C. elegans, fluorescence polarization, dose response (AID 1960)
T8 sequence (Q9XUB2 whole entry): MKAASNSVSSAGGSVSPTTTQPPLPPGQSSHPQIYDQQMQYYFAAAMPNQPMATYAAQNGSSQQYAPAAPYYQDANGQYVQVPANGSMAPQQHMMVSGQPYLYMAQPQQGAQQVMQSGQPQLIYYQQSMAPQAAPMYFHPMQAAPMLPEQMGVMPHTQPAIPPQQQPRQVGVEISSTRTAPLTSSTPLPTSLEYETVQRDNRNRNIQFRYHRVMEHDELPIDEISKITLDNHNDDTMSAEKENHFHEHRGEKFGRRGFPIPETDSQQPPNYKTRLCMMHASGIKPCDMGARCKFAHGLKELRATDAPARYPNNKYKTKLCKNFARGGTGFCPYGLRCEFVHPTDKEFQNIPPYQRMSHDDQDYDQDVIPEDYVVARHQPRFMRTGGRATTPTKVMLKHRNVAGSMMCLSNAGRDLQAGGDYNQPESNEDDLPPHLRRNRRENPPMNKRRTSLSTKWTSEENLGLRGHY

SUMO-activating enzyme [10] = target: T7, SUMO-activating enzyme; experiment: blockers of SAE1/SAE2–UBC9 SUMO transfer – biochemical, HTRF, uHTS, primary screen (AID 2006); type: protein-complex assay
Aminopeptidase N = target: T9, Aminopeptidase N (Plasmodium falciparum FcB1/Columbia, UniProt O96935); experiment: malaria alanyl aminopeptidase activity blockers – biochemical, fluorogenic H-Leu-NHMec substrate, 1536-well (AID 1445); set-up: species or system Plasmodium falciparum 3D7, 3D7
T9 sequence (O96935 whole entry): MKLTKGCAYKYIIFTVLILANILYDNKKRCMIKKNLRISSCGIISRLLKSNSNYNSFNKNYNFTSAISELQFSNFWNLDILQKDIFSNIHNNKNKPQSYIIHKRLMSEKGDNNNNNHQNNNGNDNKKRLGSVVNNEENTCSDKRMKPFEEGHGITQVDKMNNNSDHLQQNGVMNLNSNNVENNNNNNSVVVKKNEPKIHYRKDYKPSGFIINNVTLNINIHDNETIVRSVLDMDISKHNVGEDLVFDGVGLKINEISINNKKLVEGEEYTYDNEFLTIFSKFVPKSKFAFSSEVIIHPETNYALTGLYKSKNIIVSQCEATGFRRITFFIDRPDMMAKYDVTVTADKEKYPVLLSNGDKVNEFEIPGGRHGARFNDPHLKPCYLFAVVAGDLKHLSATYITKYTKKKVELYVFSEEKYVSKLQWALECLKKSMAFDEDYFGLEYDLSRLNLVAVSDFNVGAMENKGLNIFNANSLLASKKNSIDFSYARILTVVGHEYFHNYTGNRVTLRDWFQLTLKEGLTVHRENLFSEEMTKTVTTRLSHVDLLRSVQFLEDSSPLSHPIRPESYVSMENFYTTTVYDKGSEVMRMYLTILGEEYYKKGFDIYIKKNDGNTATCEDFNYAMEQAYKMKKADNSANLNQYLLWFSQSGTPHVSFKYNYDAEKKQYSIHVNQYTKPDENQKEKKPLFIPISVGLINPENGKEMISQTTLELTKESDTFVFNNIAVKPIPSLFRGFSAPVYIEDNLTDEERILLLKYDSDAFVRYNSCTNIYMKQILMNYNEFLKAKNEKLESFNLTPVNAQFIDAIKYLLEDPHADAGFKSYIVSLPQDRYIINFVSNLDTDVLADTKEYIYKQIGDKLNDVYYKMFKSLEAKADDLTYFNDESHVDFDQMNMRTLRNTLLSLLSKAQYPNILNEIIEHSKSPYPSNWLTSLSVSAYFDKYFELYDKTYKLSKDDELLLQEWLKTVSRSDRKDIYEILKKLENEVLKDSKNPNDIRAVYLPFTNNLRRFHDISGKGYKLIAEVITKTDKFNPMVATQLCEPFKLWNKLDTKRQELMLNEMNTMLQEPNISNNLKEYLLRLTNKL

Vero = experiment: cells; type: functional; details: Chlorocebus sabaeus
[11] = blockers of HIV-1 ZM109 envelope-driven cell-cell fusion – HeLa effector, CEM target cells, luciferase, cherry-pick, dose response (AID 652058); type: functional, cell-based;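 also: luciferase signal from HIV-1 Env mediated cell-cell fusion of effector and target cells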
[12] = HIV-1 AD8 envelope cell-cell fusion blockers – cherry-pick, dose response (AID 652062); type: functional, cell-based;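 also: luciferase signal from cell-cell fusion driven by HIV-1 clade B AD8 Env; potency is for inhibitors of fusion seen as a drop in luminescence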
[13] = blockers of HIV-1 envelope-mediated cell-cell fusion – cherry-pick, dose response (AID 652057); type: functional, cell-based
[14] = off-target signal loss in HeLa-CEM21 co-culture – HeLa F-luc CTL cells, cherry-picked, counter-screen for HIV-1 Env fusion inhibitor project, dose response (AID 652040); type: functional, cell-based;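 also: potency for signal decrease marking cytotoxic or nonspecific inhibition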

Chain of Melanin-concentrating hormone receptor 1 (Q99705 whole entry): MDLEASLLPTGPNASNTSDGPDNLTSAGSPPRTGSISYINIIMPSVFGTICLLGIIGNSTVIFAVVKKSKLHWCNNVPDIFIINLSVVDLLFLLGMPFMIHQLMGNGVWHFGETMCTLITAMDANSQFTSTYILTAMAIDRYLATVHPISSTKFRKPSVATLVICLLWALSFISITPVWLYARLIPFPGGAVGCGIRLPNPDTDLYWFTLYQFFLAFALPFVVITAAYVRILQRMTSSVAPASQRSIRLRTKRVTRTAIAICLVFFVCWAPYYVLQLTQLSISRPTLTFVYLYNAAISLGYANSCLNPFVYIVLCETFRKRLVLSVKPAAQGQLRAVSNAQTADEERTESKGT
T7 sequence (Q9UBE0 whole entry): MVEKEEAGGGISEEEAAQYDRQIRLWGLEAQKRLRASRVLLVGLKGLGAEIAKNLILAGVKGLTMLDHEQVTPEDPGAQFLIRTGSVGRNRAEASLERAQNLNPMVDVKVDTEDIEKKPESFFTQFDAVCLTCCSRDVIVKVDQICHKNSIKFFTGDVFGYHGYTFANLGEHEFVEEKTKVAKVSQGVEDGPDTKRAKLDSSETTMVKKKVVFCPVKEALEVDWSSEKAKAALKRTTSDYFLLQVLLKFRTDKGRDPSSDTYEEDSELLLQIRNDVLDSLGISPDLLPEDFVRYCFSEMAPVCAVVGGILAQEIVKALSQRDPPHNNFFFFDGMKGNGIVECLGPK
T7 sequence (Q9UBT2 whole entry): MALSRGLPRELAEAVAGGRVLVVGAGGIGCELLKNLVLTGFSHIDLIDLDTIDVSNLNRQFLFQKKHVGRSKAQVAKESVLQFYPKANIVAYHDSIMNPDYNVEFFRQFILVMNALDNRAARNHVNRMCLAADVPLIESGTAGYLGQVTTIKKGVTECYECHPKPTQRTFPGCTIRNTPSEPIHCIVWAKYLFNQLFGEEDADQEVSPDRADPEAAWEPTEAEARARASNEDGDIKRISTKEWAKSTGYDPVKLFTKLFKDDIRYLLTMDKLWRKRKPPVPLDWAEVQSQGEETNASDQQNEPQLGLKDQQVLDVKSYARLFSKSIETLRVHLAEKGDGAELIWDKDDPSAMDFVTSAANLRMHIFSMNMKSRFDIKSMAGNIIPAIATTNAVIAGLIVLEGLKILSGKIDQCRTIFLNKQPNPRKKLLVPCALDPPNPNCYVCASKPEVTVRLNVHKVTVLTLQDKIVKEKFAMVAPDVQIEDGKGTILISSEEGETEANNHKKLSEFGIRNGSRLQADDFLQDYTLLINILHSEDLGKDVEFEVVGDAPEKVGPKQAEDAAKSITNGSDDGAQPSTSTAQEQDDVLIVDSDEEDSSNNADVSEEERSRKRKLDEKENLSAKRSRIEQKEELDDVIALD
Chain of Cytochrome P450 2C19 (P33261 whole entry): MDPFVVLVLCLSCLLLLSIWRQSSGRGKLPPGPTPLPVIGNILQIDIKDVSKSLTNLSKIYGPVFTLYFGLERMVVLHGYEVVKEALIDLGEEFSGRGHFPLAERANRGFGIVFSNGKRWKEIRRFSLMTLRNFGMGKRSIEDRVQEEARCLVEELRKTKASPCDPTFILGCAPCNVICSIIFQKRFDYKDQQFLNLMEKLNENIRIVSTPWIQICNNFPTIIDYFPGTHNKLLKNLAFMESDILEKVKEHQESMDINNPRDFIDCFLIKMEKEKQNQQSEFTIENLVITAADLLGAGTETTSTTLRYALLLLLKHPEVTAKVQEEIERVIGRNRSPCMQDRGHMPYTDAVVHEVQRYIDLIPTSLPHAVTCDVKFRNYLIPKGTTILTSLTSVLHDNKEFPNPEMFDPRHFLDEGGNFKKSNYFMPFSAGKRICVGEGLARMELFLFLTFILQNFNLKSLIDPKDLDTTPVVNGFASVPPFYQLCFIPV
Chain of Nonstructural protein 1 (Q194T2 whole entry): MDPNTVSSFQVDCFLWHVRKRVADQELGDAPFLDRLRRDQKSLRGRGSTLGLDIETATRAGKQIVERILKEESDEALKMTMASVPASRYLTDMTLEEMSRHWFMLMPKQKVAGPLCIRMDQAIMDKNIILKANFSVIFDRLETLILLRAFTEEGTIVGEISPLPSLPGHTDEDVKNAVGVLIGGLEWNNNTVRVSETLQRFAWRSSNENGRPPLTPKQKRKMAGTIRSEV
Chain of Albumin (P02769 whole entry): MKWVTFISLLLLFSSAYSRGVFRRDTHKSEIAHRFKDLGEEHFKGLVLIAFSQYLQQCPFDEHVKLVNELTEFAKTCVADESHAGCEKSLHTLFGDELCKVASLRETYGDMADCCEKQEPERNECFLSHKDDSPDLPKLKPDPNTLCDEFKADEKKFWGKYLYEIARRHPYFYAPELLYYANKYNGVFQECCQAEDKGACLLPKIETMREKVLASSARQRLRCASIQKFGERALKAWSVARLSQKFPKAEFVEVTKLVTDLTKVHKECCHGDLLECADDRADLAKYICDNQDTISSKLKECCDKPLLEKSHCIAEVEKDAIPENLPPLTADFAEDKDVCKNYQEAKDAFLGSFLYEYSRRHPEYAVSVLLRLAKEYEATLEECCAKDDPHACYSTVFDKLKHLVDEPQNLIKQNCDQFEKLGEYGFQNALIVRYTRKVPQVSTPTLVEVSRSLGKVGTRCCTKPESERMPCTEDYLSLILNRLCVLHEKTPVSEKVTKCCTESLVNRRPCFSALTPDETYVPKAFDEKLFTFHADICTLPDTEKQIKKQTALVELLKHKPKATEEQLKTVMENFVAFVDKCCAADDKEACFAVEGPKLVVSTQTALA
Chain of Cytochrome P450 2D6 (P10635 whole entry): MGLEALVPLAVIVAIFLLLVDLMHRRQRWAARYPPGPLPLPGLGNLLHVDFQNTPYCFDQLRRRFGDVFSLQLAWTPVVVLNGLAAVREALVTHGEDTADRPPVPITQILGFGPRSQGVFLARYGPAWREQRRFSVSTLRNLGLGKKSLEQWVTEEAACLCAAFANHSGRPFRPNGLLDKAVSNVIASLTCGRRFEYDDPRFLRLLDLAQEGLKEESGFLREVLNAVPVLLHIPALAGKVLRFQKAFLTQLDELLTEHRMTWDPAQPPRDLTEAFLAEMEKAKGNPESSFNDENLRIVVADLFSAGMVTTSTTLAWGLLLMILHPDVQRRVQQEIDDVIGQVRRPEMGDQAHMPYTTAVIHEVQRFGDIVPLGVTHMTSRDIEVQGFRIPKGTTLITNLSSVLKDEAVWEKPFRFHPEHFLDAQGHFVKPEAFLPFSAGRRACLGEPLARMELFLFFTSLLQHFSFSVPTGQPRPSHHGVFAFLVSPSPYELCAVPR

C#CCOCCOCCOCCNc1nc(N2CCN(C(=O)[C@H](CCCCN)n3cc([C@@H](N)[C@H](C)CC)nn3)CC2)nc(N2CCN(C(=O)[C@H](CCCCN)n3cc([C@@H](N)CC(N)=O)nn3)CC2)n1
IC50 [1]: 10.3 µM (active)
IC50 (Bcl-2-related protein A1): > 20 µM (inactive)
IC50 [2]: 16.6 µM (active)

[2H]C(CCOS(N)(=O)=O)c1ccc(C(C)(C)C)cc1 (stereo not drawn)
AC50 [3]: 0.487 µM (active)

CN(c1ccccc1)S(=O)(=O)c1ccc(C(=O)NCCc2ccccc2)cc1
IC50 [4]: 16 µM (not active)
IC50 [5]: > 14.6 µM (not active)

CCOc1ccc(N(CC(=O)NCc2ccc(OC)cc2)S(=O)(=O)c2c(C)noc2C)cc1
AC50 (Cytochrome P450 2D6): inconclusive
AC50 (Cytochrome P450 2C19): 0.282 µM (inconclusive)

O=C(CSc1ccc(Cl)cc1)NC1CCCC1
AC50 [3]: 14.2 µM (active)

COc1ccc(NS(=O)(=O)c2cccc(C(=O)NCC(c3ccc(F)cc3)N3CCOCC3)c2)cc1 (stereo not drawn)
IC50 [4]: 23.6 µM (not active)
IC50 [5]: > 43.8 µM (not active)

O=C1NC(=O)N(Cc2ccco2)C(=O)/C1=C/NNC(=O)c1ccccc1O
IC50 (Leucine aminopeptidase): 50.3 µM (active)
EC50 [6]: 15.5 µM (active)
EC50 [7]: 3 µM (active)
IC50 (Nonstructural protein 1): 42.3 µM (active)
IC50 (SUMO-activating enzyme [8]): 2.29 µM (active)
IC50 (Albumin): > 94 µM (inactive)
EC50 (Streptococcus): 6.03 µM (active)
EC50 [9]: 16.9 µM (active)
IC50 (SUMO-activating enzyme [10]): 15 µM (active)
IC50 (Aminopeptidase N): 26.2 µM (active)

C=CCNC(=S)Nc1sc2c(c1C(=O)OCC)CCN(C(=O)OCC)C2
IC50 [1]: 12.4 µM (active)
IC50 (Bcl-2-related protein A1): > 20 µM (inactive)
IC50 [2]: > 20 µM (inactive)

Sc1nnc(-c2cccs2)n1/N=C/c1cn(-c2ccccc2)nc1-c1ccc(Cl)cc1
IC50 (SUMO-activating enzyme [8]): 5.24 µM (active)
CC50 (Vero): > 25 µM (active)
IC50 (SUMO-activating enzyme [10]): 34.5 µM (active)

COC(=O)CNC(c1ccccc1)c1cc(C)ccc1NC(=O)CNC(=O)OCc1ccccc1 (stereo not drawn)
IC50 [4]: 20 µM (not active)
IC50 [5]: 35.3 µM (not active)
AC50 [11]: 6.89 µM (active)
AC50 [12]: 36.1 µM (active)
AC50 [13]: 3.28 µM (active)
AC50 [14]: 6.15 µM (active)
